According to US8497278B2, “Imidazo[1,2-a]pyridine compounds” (priority 2008, dated 2013):

Legend:
[1] = target: T1, α2 subtype containing GABA-A receptors (Homo sapiens, UniProt P18507+P47869); assay: Two-electrode voltage clamp electrophysiology in Xenopus oocytes, potentiation of GABA EC20 response, α2; assay type: cell-based; conditions: 100 nM compound, read-out: Percentage of potentiation alpha2
T1 construct: expressed in transfected cells; host or cells: Xenopus laevis oocytes, cRNA injected
T1 sequence (P47869 29-451): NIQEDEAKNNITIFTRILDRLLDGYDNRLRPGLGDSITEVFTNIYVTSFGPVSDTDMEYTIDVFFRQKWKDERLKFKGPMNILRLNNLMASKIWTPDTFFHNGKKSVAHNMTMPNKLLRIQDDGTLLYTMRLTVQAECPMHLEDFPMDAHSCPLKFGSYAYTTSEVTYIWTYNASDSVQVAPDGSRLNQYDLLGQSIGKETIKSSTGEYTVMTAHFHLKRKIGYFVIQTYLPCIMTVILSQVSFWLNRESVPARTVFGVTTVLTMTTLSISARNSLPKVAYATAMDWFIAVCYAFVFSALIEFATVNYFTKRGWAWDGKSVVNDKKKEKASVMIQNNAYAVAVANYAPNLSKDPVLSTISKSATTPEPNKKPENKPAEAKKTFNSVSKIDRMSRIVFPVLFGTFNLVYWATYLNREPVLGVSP
T1 sequence (P28472 26-473 partner): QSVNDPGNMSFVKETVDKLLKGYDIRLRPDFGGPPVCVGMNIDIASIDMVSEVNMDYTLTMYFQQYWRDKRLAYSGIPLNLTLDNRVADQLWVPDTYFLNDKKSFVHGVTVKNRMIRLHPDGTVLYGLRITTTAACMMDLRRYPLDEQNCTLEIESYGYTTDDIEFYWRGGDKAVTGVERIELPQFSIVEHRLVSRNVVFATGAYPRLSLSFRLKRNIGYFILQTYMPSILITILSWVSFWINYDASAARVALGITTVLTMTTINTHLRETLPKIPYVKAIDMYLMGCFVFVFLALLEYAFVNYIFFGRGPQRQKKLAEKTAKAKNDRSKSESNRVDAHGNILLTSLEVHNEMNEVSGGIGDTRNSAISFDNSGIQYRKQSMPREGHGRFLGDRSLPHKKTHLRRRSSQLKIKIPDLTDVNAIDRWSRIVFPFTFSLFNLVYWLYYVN
T1 sequence (P18507 40-475): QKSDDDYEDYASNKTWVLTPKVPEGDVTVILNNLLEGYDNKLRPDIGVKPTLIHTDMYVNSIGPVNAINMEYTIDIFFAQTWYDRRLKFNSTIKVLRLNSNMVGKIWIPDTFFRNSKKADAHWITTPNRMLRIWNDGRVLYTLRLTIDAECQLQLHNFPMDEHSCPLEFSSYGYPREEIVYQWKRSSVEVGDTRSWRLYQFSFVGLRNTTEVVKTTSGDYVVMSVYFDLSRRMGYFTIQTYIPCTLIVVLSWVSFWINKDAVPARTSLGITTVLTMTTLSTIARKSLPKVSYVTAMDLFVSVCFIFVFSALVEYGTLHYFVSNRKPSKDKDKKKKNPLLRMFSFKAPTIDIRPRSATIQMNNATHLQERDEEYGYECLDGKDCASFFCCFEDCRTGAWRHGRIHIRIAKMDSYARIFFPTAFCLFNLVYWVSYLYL
Outline: (§1)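 Potentiation of the GABA EC20 current by 100 nM compound is the read-out, recorded by two-electrode voltage clamp at −80 mV in oocytes carrying human α1, α2, α3 or α5 with β3 and γ2L. Baseline came from three 20-s applications of 60 μM GABA.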

[2] = target: T2, α1 subtype containing GABA-A receptors (Homo sapiens, UniProt P14867+P18507); assay: Two-electrode voltage clamp electrophysiology in Xenopus oocytes, potentiation of GABA EC20 response, α1; assay type: cell-based; conditions: 100 nM compound, read-out: Percentage of potentiation alpha1
T2 construct: expressed in transfected cells; host or cells: Xenopus laevis oocytes, cRNA injected
T2 sequence (P14867 28-456): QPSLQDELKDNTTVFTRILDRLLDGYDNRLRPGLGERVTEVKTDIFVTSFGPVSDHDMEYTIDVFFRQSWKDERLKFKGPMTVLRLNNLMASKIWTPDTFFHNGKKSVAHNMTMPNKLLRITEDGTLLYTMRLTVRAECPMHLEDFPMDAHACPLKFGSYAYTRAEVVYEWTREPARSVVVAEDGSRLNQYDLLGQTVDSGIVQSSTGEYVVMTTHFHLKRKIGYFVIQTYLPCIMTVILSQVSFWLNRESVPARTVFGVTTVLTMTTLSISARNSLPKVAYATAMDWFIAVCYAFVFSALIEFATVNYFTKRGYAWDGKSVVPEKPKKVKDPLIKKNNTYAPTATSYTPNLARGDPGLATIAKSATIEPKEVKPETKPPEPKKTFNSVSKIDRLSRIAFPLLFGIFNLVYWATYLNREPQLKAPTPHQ
T2 sequence (P28472 26-473 partner): as the sequence (P28472 26-473 partner) above
T2 sequence (P18507 40-475): as the sequence (P18507 40-475) above
Outline: as §1

[3] = system: Wistar rats; assay: Vogel conflict test; assay type: in vivo; conditions: rat, 60 min before test, 3 minute test
Description: Vogel Conflict Test Protocol: The Vogel conflict test is an animal model of anxiety described by Vogel et al. (1971). In this test, water deprived animals are placed in a cage with free access to a drinking bottle. Whenever the animal drinks, an electric shock is administered. Animals punished during drinking rapidly cease to drink. Anxiolytic drugs decrease the effect of punishment and increase the number of shocks accepted by the rats in this conflict situation. Male Wistar rats were used in these studies. Rats were deprived of water for approximately 48 hours and then placed individually into a transparent Plexiglas enclosure with a floor consisting of stainless steel bars spaced 1 cm apart. The back wall of the enclosure was made of opaque Plexiglas thereby concealing the observer from the experimental animal. In the center of the opposite wall, 5 cm above the floor, a metal water spout protruded into the cage and was connected to one pole of a shock generator. The other pole of the shock generator was connected to the metal grid floor. The rat is left to explore until it finds the water spout. Then, every time it drinks, it receives an electric shock (1.7 mA, 1 sec duration) 2 seconds after it starts drinking The number of punished drinks is counted during a 3 minute test. Ten rats are studied per treatment group. Clobazam (64 mg/kg) was used as the positive control. Compounds of the present invention, vehicle (45% hydroxypropyl beta-cyclodextrin) and clobazam were administered orally to all groups (n=10 […] per group) 60 minutes prior to behavioral testing. All data were analyzed using unpaired Student's t-tests. An effect was considered significance if p<0.05.

[4] = system: central benzodiazepine receptors; assay: Central benzodiazepine receptor binding (test of Speth et al.); conditions: 1000 nM of the compound
Outline: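 Radioligand binding by the Speth et al. method. Specific binding is total minus nonspecific binding, the latter measured with excess unlabelled ligand. Compounds screened at 1.0E-09, 1.0E-07 and 1.0E-05 M in single determination; values given as percent inhibition at 1000 nM compound.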

[5] = target: T3, α5 subtype containing GABA-A receptors (Homo sapiens, UniProt P18507+P31644); assay: Two-electrode voltage clamp electrophysiology in Xenopus oocytes, potentiation of GABA EC20 response, α5; assay type: cell-based; conditions: 100 nM compound, read-out: Percentage of potentiation alpha5
T3 construct: expressed in transfected cells; host or cells: Xenopus laevis oocytes, cRNA injected
T3 sequence (P31644 32-462): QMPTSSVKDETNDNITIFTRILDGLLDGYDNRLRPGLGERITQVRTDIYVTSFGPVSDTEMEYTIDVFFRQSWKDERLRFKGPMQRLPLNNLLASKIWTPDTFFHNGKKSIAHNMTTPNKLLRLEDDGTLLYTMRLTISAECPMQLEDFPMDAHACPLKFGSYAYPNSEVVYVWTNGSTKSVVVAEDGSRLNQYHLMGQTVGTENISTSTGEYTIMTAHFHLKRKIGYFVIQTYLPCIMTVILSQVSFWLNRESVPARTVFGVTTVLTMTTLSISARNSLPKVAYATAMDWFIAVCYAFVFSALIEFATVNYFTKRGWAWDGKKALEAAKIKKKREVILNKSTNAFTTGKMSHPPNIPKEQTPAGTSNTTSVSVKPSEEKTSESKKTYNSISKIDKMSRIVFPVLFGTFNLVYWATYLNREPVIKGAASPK
T3 sequence (P28472 26-473 partner): as the sequence (P28472 26-473 partner) above
T3 sequence (P18507 40-475): as the sequence (P18507 40-475) above
Description: (§2) Electrophysiology protocol: Oocytes were prepared from adult female Xenopus laevis frogs. cRNA encoding human α1, α2, α3, α5, β3 and γ2L GABAA receptor subunits was injected into the cytoplasm of stage 5 or 6 oocytes using the Robocyte Robot (Multi Channel Systems, Reutlingen, Germany). Two-electrode voltage clamp recordings were made in 96-well plates using the Robocyte Robot. Oocytes were impaled using recording heads with two glass electrodes containing 1.5 M potassium acetate and 0.5 M KCl and held at a membrane potential of −80 mV. Oocytes were continually perfused with a ND96 solution (96 mM NaCl, 2 mM KCl, 0.1 mM CaCl2, and 5 mM HEPES, pH 7.5) using a Gilson 222 XL Liquid Handler and Gilson Minipuls 3 Peristaltic Pump (Gilson Medical Electronics, Middleton, Wis., USA). The protocol consisted of three 20-s applications of GABA that gave a 20% of the maximum response (EC20: 60 μM) to allow for headroom to determine a baseline GABA response. To assess the potentiation, oocytes were first exposed to a single 1 μM chlordiazepoxide (CDP) as a potentiation standard. Oocytes with insufficient expression levels (currents below threshold) or insufficient γ2L subunit incorporation (judged by rapid desensitization upon GABA application, or by insufficient potentiation by CDP) were not included in analysis. Following this control application, a given oocyte was exposed to test compounds at 100 nM concentrations. Only one concentration of one compound was tested per oocyte. […] One skilled in the art will recognize that subtypes contribute to the effects of GABA-A modulators. Such that compounds favoring different subtypes can have different therapeutic effects. The magnitude of modulation, for example, partial modulators can influence the effects in vivo. “++” indicates a greater modulation that “+” so that at any given subtype “++” inducates a greater amount of modulation for that subtype. In some embodiments, modulation favoring alpha 1 relative to alpha2 and/or alpha 3 can have sedative hypnotic effects. In other embodiments, compounds with reduced selectivity of alpha 1 can express anxiolytic effects with less sedation. Compounds with selectivity for alpha 5 can have memory/cognition enhancing effects.

[6] = target: T4, α3 subtype containing GABA-A receptors (Homo sapiens, UniProt P18507+P34903); assay: Two-electrode voltage clamp electrophysiology in Xenopus oocytes, potentiation of GABA EC20 response, α3; assay type: cell-based; conditions: 100 nM compound, read-out: Percentage of potentiation alpha3
T4 construct: expressed in transfected cells; host or cells: Xenopus laevis oocytes, cRNA injected
T4 sequence (P34903 29-492): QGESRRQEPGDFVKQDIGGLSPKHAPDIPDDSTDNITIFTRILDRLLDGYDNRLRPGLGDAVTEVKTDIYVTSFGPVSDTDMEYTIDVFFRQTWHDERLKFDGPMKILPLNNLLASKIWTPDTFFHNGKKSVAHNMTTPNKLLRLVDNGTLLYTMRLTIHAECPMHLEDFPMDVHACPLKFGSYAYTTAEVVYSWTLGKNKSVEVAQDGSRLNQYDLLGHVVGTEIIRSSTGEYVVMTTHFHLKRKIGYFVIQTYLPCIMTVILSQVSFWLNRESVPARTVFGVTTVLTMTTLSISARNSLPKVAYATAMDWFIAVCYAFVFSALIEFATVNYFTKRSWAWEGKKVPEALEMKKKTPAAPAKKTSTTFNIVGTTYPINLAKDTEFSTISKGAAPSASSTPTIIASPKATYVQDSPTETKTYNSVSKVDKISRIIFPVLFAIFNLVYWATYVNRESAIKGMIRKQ
T4 sequence (P28472 26-473 partner): as the sequence (P28472 26-473 partner) above
T4 sequence (P18507 40-475): as the sequence (P18507 40-475) above
Description: as §2

Structure (SMILES): Clc1ccc(-c2nc3ccccn3c2Cn2ccnn2)cc1 [Compound 40, 2-(4-Chloro-phenyl)-3-[1,2,3]triazol-1-ylmethyl-imidazo[1,2-a]pyridine]
- activation at 0.1 µM [1]: 10 to 50%
- activation at 0.1 µM [2]: -10 to 10%
- Number of Shocks Mean ± S.E.M. ([3]; 1 mg/kg PO): 2.4 ± 0.4
- Number of Shocks Mean ± S.E.M. ([3]; 3 mg/kg PO): 3.4 ± 0.7
- Number of Shocks Mean ± S.E.M. ([3]; 10 mg/kg PO): 4.4 ± 0.7
- % Inhibition at 1000 nM for CBZD [4]: ++ (percentage of inhibition of central BZD site binding is greater than 80% in the presence of 1000 nM of the compound)

Structure (SMILES): Cc1cc(Cl)nc(NCc2c(-c3ccc(Cl)cc3)nc3ccc(Cl)cn23)n1 [Compound 170, 4-chloro-N-((6-chloro-2-(4-chlorophenyl)imidazo[1,2-a]pyridin-3-yl)methyl)-6-methylpyrimidin-2-amine]
- activation at 0.1 µM [1]: 10 to 50%
- activation at 0.1 µM [5]: -10 to 10%
- activation at 0.1 µM [6]: 10 to 50%
- activation at 0.1 µM [2]: 10 to 50%
- Number of Shocks Mean ± S.E.M. ([3]; 0.3 mg/kg PO): 5.1 ± 0.9
- Number of Shocks Mean ± S.E.M. ([3]; 1 mg/kg PO): 5.6 ± 0.9
- Number of Shocks Mean ± S.E.M. ([3]; 3 mg/kg PO): 6.5 ± 1.0
- % Inhibition at 1000 nM for CBZD [4]: ++ (percentage of inhibition of central BZD site binding is greater than 80% in the presence of 1000 nM of the compound)
